{
  "source": "paper PMC8132073",
  "about": "(Journal of Applied Glycoscience, 2020)",
  "key": {"BsRhaA": {"biological_target": "T1, BsRhaA (Bacillus sp. GL1, UniProt Q93RE8)", "T1 sequence (Q93RE8 1-886)": "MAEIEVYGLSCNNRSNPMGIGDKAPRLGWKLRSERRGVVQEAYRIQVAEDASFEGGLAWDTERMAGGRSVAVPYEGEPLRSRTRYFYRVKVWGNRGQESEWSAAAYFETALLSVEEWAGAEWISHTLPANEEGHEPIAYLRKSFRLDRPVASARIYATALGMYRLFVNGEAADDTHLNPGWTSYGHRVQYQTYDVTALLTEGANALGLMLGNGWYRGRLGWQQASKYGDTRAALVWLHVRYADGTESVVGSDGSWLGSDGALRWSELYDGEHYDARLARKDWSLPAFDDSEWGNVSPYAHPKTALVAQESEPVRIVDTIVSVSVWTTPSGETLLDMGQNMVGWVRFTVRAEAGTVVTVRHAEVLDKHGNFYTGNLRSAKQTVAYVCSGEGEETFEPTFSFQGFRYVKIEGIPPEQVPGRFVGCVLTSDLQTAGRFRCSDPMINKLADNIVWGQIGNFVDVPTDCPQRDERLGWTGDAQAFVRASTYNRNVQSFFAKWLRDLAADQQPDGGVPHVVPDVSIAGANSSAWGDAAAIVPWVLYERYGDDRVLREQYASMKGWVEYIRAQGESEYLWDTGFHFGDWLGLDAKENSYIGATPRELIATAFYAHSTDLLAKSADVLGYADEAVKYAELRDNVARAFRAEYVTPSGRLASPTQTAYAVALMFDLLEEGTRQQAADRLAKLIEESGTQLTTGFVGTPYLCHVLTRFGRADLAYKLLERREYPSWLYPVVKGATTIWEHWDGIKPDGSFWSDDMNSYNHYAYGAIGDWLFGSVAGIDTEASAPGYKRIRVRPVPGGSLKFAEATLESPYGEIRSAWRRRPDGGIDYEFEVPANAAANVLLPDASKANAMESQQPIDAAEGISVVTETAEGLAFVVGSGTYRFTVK", "test": "p-nitrophenol release, absorbance […] nm", "format": "biochemical", "settings": "[…] sodium phosphate pH […] °C"}, "KoRha": {"biological_target": "T2, KoRha (Klebsiella oxytoca, UniProt A0A0J9X262)", "T2 sequence (A0A0J9X262 1-523)": "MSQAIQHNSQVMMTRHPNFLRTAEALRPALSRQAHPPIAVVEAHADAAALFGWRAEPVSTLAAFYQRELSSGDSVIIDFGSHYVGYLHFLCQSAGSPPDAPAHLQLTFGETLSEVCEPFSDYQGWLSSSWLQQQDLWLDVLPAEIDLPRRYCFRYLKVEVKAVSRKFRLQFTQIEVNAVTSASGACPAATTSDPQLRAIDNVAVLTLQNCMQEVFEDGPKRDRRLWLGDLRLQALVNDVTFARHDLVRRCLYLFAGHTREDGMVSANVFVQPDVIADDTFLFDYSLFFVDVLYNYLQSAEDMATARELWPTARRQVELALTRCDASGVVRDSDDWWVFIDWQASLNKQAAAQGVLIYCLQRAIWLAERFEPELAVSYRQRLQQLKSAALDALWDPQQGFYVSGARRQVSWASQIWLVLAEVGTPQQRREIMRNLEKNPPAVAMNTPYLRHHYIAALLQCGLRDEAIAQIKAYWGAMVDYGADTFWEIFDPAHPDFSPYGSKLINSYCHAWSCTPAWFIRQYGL", "test": "p-nitrophenol release, absorbance […] nm", "format": "biochemical", "settings": "100 mM sodium phosphate pH 7.0, 30 °C"}},
  "data": [
    {"compound": "C[C@@H]1O[C@@H](Oc2ccc([N+](=O)[O-])cc2)[C@H](O)[C@H](O)[C@H]1O", "note": "[pNP-α-L-Rha, 4-nitrophenyl-α-L-rhamnopyranoside]", "values": [
      {"measurement": "p-nitrophenol release, absorbance 405 nm", "setting": "BsRhaA", "result": "All four α-L-Rha-ases exhibited α-L-rhamnosyl-hydrolyzing and weak α-L-mannosyl-hydrolyzing activity"},
      {"measurement": "p-nitrophenol release, absorbance 405 nm", "setting": "KoRha", "result": "All four α-L-Rha-ases exhibited α-L-rhamnosyl-hydrolyzing and weak α-L-mannosyl-hydrolyzing activity"}
    ]}
  ]
}
